Columns and labels:
[1] = system: purified rat Leydig cells; experiment: Testosterone production by purified rat Leydig cells, basal and hCG stimulated
rat adrenocortical cells = experiment: Corticosterone secretion in dissociated rat adrenocortical cells; assay type: cell-based; details: rat adrenocortical cell suspensions, FIG. 5a
Method: (§1) Cells--The Y-1 adrenal mouse tumor cell line used in these studies was obtained from the American Type Culture Collection (ATCC #CCL 79). Stock cultures were grown in modified Waymouth's MB752/l medium containing 20 mM HEPES, 1.2 g/l NaHCO3, 15% horse serum and 2.5% fetal calf serum, pH 7.4. Before use the cells were washed three times at 30 min intervals, with serum-free media in order to eliminate serum components that may interfere with the assays and were incubated for the indicated time periods in the presence of the drugs under investigation. Bovine fasciculata-reticularis and adrenocortical cells from adult (300 g) Sprague-Dawley rats were prepared as previously described by Yanagibashi et al, (1989) Endocrinology 124; 2838-2391.
Measurement of steroid production--These experiments were performed with the Y-1 cells plated in 12--22 mm wells and incubated for the times shown at a final volume of 1 ml of serum-free media at 37° C. […] Steroid production was determined by measuring 20-γ-hydroxyprogesterone, the main steroid product of these cells, using a radioimmunoassay with an antibody donated by Dr. G. Nieswender (Univ. of Colorado, Fort Collins), under the process described in Kowal J. (1970), Recent Progress in Hormone Research 26, 623-687 and Schimmer B.P. (1981) in Functionally Differentiated Cell Lines, ed. […]

[2] = target: T1, peripheral-type benzodiazepine receptor (PBR) in Y-1 cells (Mus musculus, UniProt P50637); experiment: [3H]PK 11195 binding in Y-1 adrenocortical cells; details: 37° C., FIG. 2a
T1 construct: Y-1 cell cultures were scraped from the flasks; host or cells: Y-1 mouse adrenal tumor cells
T1 sequence (P50637 whole entry): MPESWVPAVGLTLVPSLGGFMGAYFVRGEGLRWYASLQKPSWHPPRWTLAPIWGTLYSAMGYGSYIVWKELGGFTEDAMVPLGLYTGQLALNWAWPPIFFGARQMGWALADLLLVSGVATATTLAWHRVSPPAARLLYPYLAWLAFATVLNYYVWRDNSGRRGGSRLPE
Method: as §1
Radioligand binding assays--Y-1 cell cultures were scraped from the flasks ([…]) in 5 ml of Kreb's buffer, dispersed by repetitive pipetting, and centrifuged at 1,200 × g for 5 min. The cell pellets were resuspended in Kreb's buffer and larger cellular aggregates were allowed to settle for 5 min. The finely dispersed cell suspensions were taken for further experimentation.
Binding assays were performed in a total volume of 250-400 ul of Kreb's buffer containing [^3 H]PK 11195 (0.07-20 nM) with 5 ug of cellular protein. Incubations were conducted at 37° C. for 30 min and bound radioligand was measured by filtration through Whatman GF/C filters followed by four rapid 5 ml washes with 25 mM Tris-HCl (pH 7.4) containing 1 uM PK 11195. Filters were subjected to liquid scintillation counting. Nonspecific binding was measured in the presence (of 10 uM nonradioactive PK 11195.

## CN1C(=O)CN=C(c2ccc(Cl)cc2)c2cc(Cl)ccc21 [Ro5-4864, 4'-chlorodiazepam]
[1]; compound 10^-5 M, basal, 4 hours at 32° C., mean ± S.D. n = 3, control 1.30 ± 0.20
  Testosterone, No Additions: 2.40 ± 0.30 ng/10^5 cel s/4 hours
[1]; compound 10^-5 M, hCG 50 ng/ml, 4 hours at 32° C., mean ± S.D. n = 3, control 15.13 ± 2.05
  Testosterone, hCG (50 ng/ml): 14.10 ± 2.26 ng/10^5 cel s/4 hours
[1]; purified rat Leydig cells, basal, 240 min
  stimulation of testosterone production: about 2 fold
Rat adrenocortical cells
  stimulation of steroid production (corticosterone), in words: much more potent at stimulating steroidogenesis in rat adrenocortical cells when compared with bovine preparations
[2]
  rank order of compound displacement potency against [3H]PK 11195 binding: alpidem>PK 11195>PK 14067>4'-chlorodiazepam>zolpidem>PK 14608, diazepam>flunitrazepam>clonazepam>flumazenil
